Results: patent US9618502B2, “Muscle stem cell or myoblast, method for screening substances that participate in metabolic conversion using same, and pharmaceutical composition comprising substance obtained from said screening method” (TOKYO METROPOLITAN GERIATRIC HOSPITAL AND INSTITUTE OF …, priority 2013, dated 2017)

Columns and labels:
Format in all cases: cell-based, mouse
[1] = test system: cells expressing the myosin-heavy chain I protein; assay: Screening method of substances involved in a metabolic shift: myotube cells from immortalized muscle stem cells, YFP fluorescence; details: for area of cells expressing the myosin-heavy chain I protein: two days treatment; for number of myotube cells that generate fluorescence of YFP (myosin-heavy chain I): compared to the negative control
Experimental: (§1) In this Example, 27 test compounds were tested by the screening method of substances involved in a metabolic shift using the immortalized muscle stem cells (satellite cells) prepared in Example 2.
(§2) The immortalized muscle stem cells (1×10^5) were seeded on a 60 mm dish or the immortalized muscle stem cells (2×10^3) were seeded on a 96 well plate. The cells were cultured in a DMEM containing 20% FBS, bFGF (10 ng/mL), and IFNy (10 ng/mL) at 33° C. for 1 day, and then, cultured in a DMEM containing 5% HS at 37° C. for 3 days. Subsequently, test substances were serially diluted by a DMEM containing 5% horse serum at an appropriate dilution rate, and the diluted substances were added to the dishes respectively. After two days treatment, fluorescences of YFP, Sirius, mCherry, and mCerulean in the living cells were observed using a fluorescence microscope, and the number of cells, which generate the respective fluorescence, was measured.
(§3) In this example, additional test compounds were tested using the immortalized muscle stem cells (satellite cells) prepared in Example 2. The screening method of substances involved in a metabolic shift was performed by repeating a procedure of Example 3.

[2] = test system: cells expressing the myosin-heavy chain IIb protein; assay: Screening method of substances involved in a metabolic shift: myotube cells from immortalized muscle stem cells, mCherry fluorescence; details: for number of myotube cells that generate fluorescence of mCherry (cells expressing myosin-heavy chain IIb): compared to the negative control; for area of cells expressing the myosin-heavy chain IIb protein: two days treatment
Experimental: as §1, §2, §3

[3] = test system: immortalized muscle stem cells (satellite cells); assay: Proliferation inhibition screening method using satellite cells; details: 5 nM, five days of culturing, versus control without rapamycin
Experimental: The rapamycin was obtained by the metabolic shift screening method in Example 3. In this Example, whether or not the rapamycin can be screened by the proliferation inhibition screening method using satellite cells was examined.
The immortalized muscle stem cells (1×10^4) were seeded on a 35 mm dish. The cells were cultured in a DMEM containing 20% FBS, bFGF (lOng/mL), and IFNγ (10 ng/mL) at 33° C. for 1 day, and then the rapamycin was diluted to a concentration of 5 nM by a DMEM containing 5% FBS, and the diluted rapamycin was added to the dish. The number of cells was counted after five days of culturing. […] The term “Control” means negative control in which the rapamycin was not added. The proliferation of satellite cells was inhibited by adding rapamycin.

C[C@H](Cc1ccc2c(c1)OC(C(=O)[O-])(C(=O)[O-])O2)NC[C@H](O)c1cccc(Cl)c1.[Na+].[Na+] [CL316243]
area of cells expressing the myosin-heavy chain I protein ([1]; 1 nM, negative control 28.4%): 49.3%
area of cells expressing the myosin-heavy chain I protein ([1]; 10 nM, negative control 28.4%): 53.8%
area of cells expressing the myosin-heavy chain I protein ([1]; 100 nM, negative control 28.4%): 57.8%
number of myotube cells that generate fluorescence of YFP (myosin-heavy chain I) [1]: increased
number of myotube cells that generate fluorescence of mCherry (cells expressing myosin-heavy chain IIb) [2]: remains static

N[C@@H](Cc1cc(I)c(Oc2ccc(O)c(I)c2)c(I)c1)C(=O)O [T3, triiodothyronine]
area of cells expressing the myosin-heavy chain IIb protein ([2]; 100 nM, negative control 44.5%): 71.3%
area of cells expressing the myosin-heavy chain IIb protein ([2]; 500 nM, negative control 44.5%): 70.0%
number of myotube cells that generate fluorescence of mCherry (cells expressing myosin-heavy chain IIb) [2]: increased

CO[C@H]1C[C@@H]2CC[C@@H](C)[C@@](O)(O2)C(=O)C(=O)N2CCCC[C@H]2C(=O)O[C@H]([C@H](C)C[C@@H]2CC[C@@H](O)[C@H](OC)C2)CC(=O)[C@H](C)/C=C(\C)[C@@H](O)[C@@H](OC)C(=O)[C@H](C)C[C@H](C)/C=C/C=C/C=C/1C [rapamycin]
area of cells expressing the myosin-heavy chain I protein ([1]; 4 nM, negative control 25.3%): 60.9%
number of myotube cells that generate fluorescence of YFP (myosin-heavy chain I) [1]: increased
area of cells expressing the myosin-heavy chain IIb protein ([2]; 4 nM, negative control 41.8%): 8.4%
number of myotube cells that generate fluorescence of mCherry (cells expressing myosin-heavy chain IIb) [2]: decreased
proliferation of satellite cells (number of cells) [3]: inhibited

IL-15: IL-15, one of the test substances
area of cells expressing the myosin-heavy chain I protein ([1]; 100 ng/mL, negative control 19.5%): 35.0%
area of cells expressing the myosin-heavy chain I protein ([1]; 500 ng/mL, negative control 19.5%): 36.1%
number of myotube cells that generate fluorescence of YFP (myosin-heavy chain I) [1]: increased
area of cells expressing the myosin-heavy chain IIb protein ([2]; 500 ng/mL, negative control 36.2%): 53.0%
number of myotube cells that generate fluorescence of mCherry (cells expressing myosin-heavy chain IIb) [2]: increased

B1: mouse fibroblast growth factor 21: protein consisting of the amino acid sequence of SEQ ID NO: 1, mouse fibroblast growth factor 21 (protein, listed as Mus musculus)
chain: MEWMRSRVGTLGLWVRLLLAVFLLGVYQAYPIPDSSPLLQFGGQVRQRYLYTDDDQDTEAHLEIREDGTVVGAAHRSPESLLELKALKPGVIQILGVKASRFLCQQPDGALYGSPHFDPEACSFRELLLEDGYNVYQSEAHGLPLRLPQKDSPNQDATSWGPVRFLPMPGLLHEPQDQAGFLPPEPPDVGSSDPLSMVEPLQGRSPSYAS
area of cells expressing the myosin-heavy chain I protein ([1]; 1 nM, negative control 28.4%): 40.6%
area of cells expressing the myosin-heavy chain I protein ([1]; 10 nM, negative control 28.4%): 48.0%
area of cells expressing the myosin-heavy chain I protein ([1]; 100 nM, negative control 28.4%): 54.9%
number of myotube cells that generate fluorescence of YFP (myosin-heavy chain I) [1]: increased
number of myotube cells that generate fluorescence of mCherry (cells expressing myosin-heavy chain IIb) [2]: remains static
